Experimental data from US8859541B2, “6-alkynylpyridines” (Boehringer Ingelheim International GmbH, priority 2012, dated 2014).

molecular target: T1, XIAP BIR3 (Homo sapiens, UniProt P98170); test: XIAP BIR3 binding assay (DELFIA), displacement of SMAC peptide; conditions: GST-fusion BIR3 domain (aa 241 to 356) 10 nM, SMAC peptide 10 nM; activity of the (S)-isomers
T1 construct: covering amino acids 241 to 356; XIAP BIR3; made in house; host or cells: E. coli
Outline: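 Each BIR3 domain (10 nM) incubated with biotinylated N-terminal SMAC peptide (10 nM) and compound for 1 h at room temp in Tris/NaCl buffer with BSA, DTT and Triton X-100. Captured on streptavidin plates; bound BIR3 detected by Eu-labelled anti-GST time-resolved fluorescence, giving IC50 values.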

T1 sequence (P98170 241-356): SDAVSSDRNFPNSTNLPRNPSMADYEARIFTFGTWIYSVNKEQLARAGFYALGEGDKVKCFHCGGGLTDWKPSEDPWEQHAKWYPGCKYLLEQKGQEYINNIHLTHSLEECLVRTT

IC50 [µM]	SMILES
0.26	CNC(C)C(=O)Nc1ccc(-c2cscc2-c2ccncc2)c(C#Cc2ccccc2)n1 (stereo not drawn) [Example 180, 2-(methylamino)-N-[6-(2-phenyl-ethynyl)-5-(4-pyridin-4-ylthiophen-3-yl)pyridin-2-yl]-propanamide]
0.222	CNC(C)C(=O)Nc1ccc(-c2ccc([N+](=O)[O-])nc2)c(C#Cc2ccccc2)n1 (stereo not drawn) [Example 181, 2-(methylamino)-N-[5-(6-nitropyridin-3-yl)-6-(2-phenyl-ethynyl)pyridin-2-yl]propanamide]
0.146	CNC(C)C(=O)Nc1ccc(-c2ccc(C(N)=O)nc2)c(C#Cc2ccccc2)n1 (stereo not drawn) [Example 183, 5-[6-[[2-(methylamino)-propanoyl]amino]-2-(2-phenyl-ethynyl)pyridin-3-yl]pyridine-2-carboxamide]
0.128	CNC(C)C(=O)Nc1ccc(-c2cnoc2C)c(C#Cc2ccccc2)n1 (stereo not drawn) [Example 188, 2-(methylamino)-N-[5-(5-methyl-1,2-oxazol-4-yl)-6-(2-phenyl-ethynyl)pyridin-2-yl]propanamide]
0.276	CNC(C)C(=O)Nc1ccc(-c2cnn(C)c2-c2ccccc2)c(C#Cc2ccccc2)n1 (stereo not drawn) [Example 190, 2-(methylamino)-N-[5-(1-methyl-5-phenylpyrazol-4-yl)-6-(2-phenylethynyl)pyridin-2-yl]-propanamide]
0.141	CNC(C)C(=O)Nc1ccc(-c2c[nH]nc2C(=O)OC)c(C#Cc2ccccc2)n1 (stereo not drawn) [Example 193, methyl 4-[6-[[2-(methylamino)-propanoyl]amino]-2-(2-phenyl-ethynyl)pyridin-3-yl]-1H-pyrazole-3-carboxylate]
0.609	CNC(C)C(=O)Nc1ccc(-c2c(C)ncn2Cc2ccccc2)c(C#Cc2ccccc2)n1 (stereo not drawn) [Example 196, N-[5-(3-benzyl-5-methylimidazol-4-yl)-6-(2-phenylethynyl)pyridin-2-yl]-2-(methylamino)propan-amide]
3.18	CC(N)C(=O)Nc1cc(Cl)cc(C#Cc2ccccc2)n1 (stereo not drawn) [Example 197, 2-amino-N-[4-chloro-6-(2-phenylethynyl)pyridin-2-yl]propanamide]
0.268	CNC(C)C(=O)Nc1cc(OC)c(-c2cncnc2)c(C#Cc2ccccc2)n1 (stereo not drawn) [Example 199, N-[4-methoxy-6-(2-phenyl-ethynyl)-5-pyrimidin-5-ylpyridin-2-yl]-2-(methyl-amino)propanamide]
1.79	Cc1cc(C#Cc2ccccc2)nc(NC(=O)C(C)N)c1 (stereo not drawn) [Example 200, 2-amino-N-[4-methyl-6-(2-phenylethynyl)pyridin-2-yl]propanamide]
10.8	CNC(C)C(=O)Nc1cc(C(F)(F)F)c(-c2cncnc2)c(C#Cc2ccccc2)n1 (stereo not drawn) [Example 201, 2-(methylamino)-N-[6-(2-phenylethynyl)-5-pyrimidin-5-yl-4-(trifluoromethyl)pyridin-2-yl]propanamide]
0.483	CNC(C)C(=O)Nc1cc(Cl)c(-c2cncnc2)c(C#Cc2ccccc2)n1 (stereo not drawn) [Example 202, N-[4-chloro-6-(2-phenylethynyl)-5-pyrimidin-5-ylpyridin-2-yl]-2-(methyl-amino)propanamide]
2.3	Cc1ccc(C#Cc2nc(NC(=O)C(C)N)cc3ccccc23)cc1 (stereo not drawn) [Example 205, 2-amino-N-[1-[2-(4-methyl-phenyl)ethynyl]isoquinolin-3-yl]propanamide]
4.24	CC(N)C(=O)Nc1cc2ccccc2c(C#Cc2ccc(Cl)cc2)n1 (stereo not drawn) [Example 207, 2-amino-N-[1-[2-(4-chlorophenyl)ethynyl]-isoquinolin-3-yl]propan-amide]

The remaining lines, values behind:

SMILES	IC50 [µM]
Cc1ccc(C#Cc2cccc(NC(=O)C(C)N)n2)cc1 (stereo not drawn) [Example 209, 2-amino-N-[6-[2-(4-methylphenyl)ethynyl]pyridin-2-yl]propanamide]	1.46
CC(N)C(=O)Nc1cccc(C#Cc2ccc(F)cc2F)n1 (stereo not drawn) [Example 210, 2-amino-N-[6-[2-(2,4-difluorophenyl)ethynyl]pyridin-2-yl]propanamide]	2.61
CC(N)C(=O)Nc1cccc(C#Cc2ccc(Cl)cc2)n1 (stereo not drawn) [Example 211, 2-amino-N-[6-[2-(4-chlorophenyl)ethynyl]pyridin-2-yl]propanamide]	2.01
CC(N)C(=O)Nc1cccc(C#Cc2ccc(F)c(F)c2)n1 (stereo not drawn) [Example 212, 2-amino-N-[6-[2-(3,4-difluorophenyl)ethynyl]pyridin-2-yl]propanamide]	3.06
CC(N)C(=O)Nc1cccc(C#Cc2cccc(C(=O)OCC3CCOCC3)c2)n1 (stereo not drawn) [Example 214, oxan-4-ylmethyl 3-[2-[6-[[2-aminopropanoyl]-amino]pyridin-2-yl]ethynyl]benzoate]	7.38
CC(N)C(=O)Nc1cccc(C#Cc2ccsc2)n1 (stereo not drawn) [Example 216, 2-amino-N-[6-(2-thiophen-3-ylethynyl)pyridin-2-yl]propanamide]	2.14
CC(N)C(=O)Nc1cccc(C#Cc2ccncc2)n1 (stereo not drawn) [Example 218, 2-amino-N-[6-(2-pyridin-4-ylethynyl)pyridin-2-yl]propanamide]	6.54
CC(N)C(=O)Nc1cccc(C#Cc2ccc(F)cc2)n1 (stereo not drawn) [Example 219, 2-amino-N-[6-[2-(4-fluorophenyl)ethynyl]pyridin-2-yl]propanamide]	0.359
COc1cccc(C#Cc2cccc(NC(=O)C(C)N)n2)c1 (stereo not drawn) [Example 220, 2-amino-N-[6-[2-(3-methoxyphenyl)ethynyl]pyridin-2-yl]propanamide]	2.16
Cc1cccc(C#Cc2cccc(NC(=O)C(C)N)n2)c1 (stereo not drawn) [Example 221, 2-amino-N-[6-[2-(3-methylphenyl)ethynyl]pyridin-2-yl]propanamide]	0.222
CC(N)C(=O)Nc1cccc(C#Cc2ccccc2Cl)n1 (stereo not drawn) [Example 222, 2-amino-N-[6-[2-(2-chlorophenyl)ethynyl]pyridin-2-yl]propanamide]	1.42
CC(N)C(=O)Nc1cccc(C#CCc2ccccc2)n1 (stereo not drawn) [Example 224, 2-amino-N-[6-(3-phenylprop-1-ynyl)pyridin-2-yl]propanamide]	3.56
CC(N)C(=O)Nc1cccc(C#CC2=CCCCC2)n1 (stereo not drawn) [Example 225, 2-amino-N-[6-[2-(cyclohexen-1-yl)ethynyl]pyridin-2-yl]propanamide]	7.04
CC(N)C(=O)Nc1cc2ccccc2c(C#Cc2cncs2)n1 (stereo not drawn) [Example 227, 2-amino-N-[1-[2-(1,3-thiazol-5-yl)ethynyl]isoquinolin-3-yl]-propanamide]	1.89
CC(N)C(=O)Nc1cccc(C#Cc2c(F)cccc2F)n1 (stereo not drawn) [Example 230, 2-amino-N-[6-[2-(2,6-difluorophenyl)ethynyl]pyridin-2-yl]propanamide]	2.41
CC(N)C(=O)Nc1cccc(C#Cc2cc(Cl)cc(Cl)c2)n1 (stereo not drawn) [Example 231, 2-amino-N-[6-[2-(3,5-dichlorophenyl)ethynyl]pyridin-2-yl]propanamide]	4.86
CC(N)C(=O)Nc1cccc(C#Cc2cc(F)cc(F)c2)n1 (stereo not drawn) [Example 233, 2-amino-N-[6-[2-(3,5-difluorophenyl)ethynyl]pyridin-2-yl]propanamide]	2.91
Cc1cc(C)cc(C#Cc2cccc(NC(=O)C(C)N)n2)c1 (stereo not drawn) [Example 235, 2-amino-N-[6-[2-(3,5-dimethylphenyl)ethynyl]pyridin-2-yl]propanamide]	2.19
CC(N)C(=O)Nc1cccc(C#Cc2c(Cl)cccc2Cl)n1 (stereo not drawn) [Example 236, 2-amino-N-[6-[2-(2,6-dichlorophenyl)ethynyl]pyridin-2-yl]propanamide]	1.97
